This note sets out measurements from paper PMC6109062, “The dual methyltransferase METTL13 targets N terminus and Lys55 of eEF1A and modulates codon-specific translation rates” (Nature Communications, 2018).

In the test the target is T1, MT13-N (N-terminal methyltransferase domain of METTL13) (Homo sapiens, UniProt Q8N6R0).
T1 construct: N-terminal methyltransferase domain, His6-tagged, E. coli
T1 sequence (Q8N6R0 1-245 limits assumed): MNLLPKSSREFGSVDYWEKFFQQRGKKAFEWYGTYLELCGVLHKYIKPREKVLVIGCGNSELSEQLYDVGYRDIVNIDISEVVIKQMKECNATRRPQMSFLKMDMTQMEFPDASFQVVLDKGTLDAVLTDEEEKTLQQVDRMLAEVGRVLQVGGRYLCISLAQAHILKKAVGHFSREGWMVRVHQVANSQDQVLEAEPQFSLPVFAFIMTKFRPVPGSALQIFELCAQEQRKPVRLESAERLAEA
Put plainly: [3H]AdoMet methyl transfer to eEF1A1, fluorography; MS. Format: biochemical. The note with it: co-substrate eEF1A1 (Lys55), no nucleotide added; pH 7.4, 1 mM MgCl2, 30 °C; labelled compound.

Turning to `C[S+](CC[C@H](N)C(=O)O)C[C@H]1O[C@@H](n2cnc3c(N)ncnc32)[C@H](O)[C@@H]1O` (stereo partly shown) [AdoMet], the “[3H]AdoMet methyl transfer to eEF1A1, fluorography; MS” value is “Recombinant eEF1A was incubated with MT13-N in the presence of AdoMet”.
